# Measurements taken from patent US20060063736A1, “Compositions and methods for inhibiting mucin-type O-linked glycosylation” (priority 2004, published 2006).
# Assays:
# [1] = tested on: HEK 293T cells; test: Jacalin staining of O-linked glycans on HEK 293T cells; assay type: cell-based, human; conditions: 100 μM, 24 h
# Procedure: (§1) HEK 293T cells were seeded at 20,000 cells/mL in a 24-well plate (Costar) fit with glass cover slips (Fisher). After 24 h of incubation with 100 μM 1-68A, cells were washed twice with PBS (pH 7.4) and fixed with 4% paraformaldehyde-PBS for 1 h at rt. The cells were washed twice with PBS and incubated with permeabilization solution (0.1% Triton X-100 in 0.1% sodium citrate, freshly prepared) for 2 min on ice. After the cells were washed twice with PBS, 50 μL of TUNEL reaction mixture (1:10 dilution, Boehringer Mannheim) was added. The plate was covered with parafilm to avoid evaporative loss and incubated in a humidified atmosphere for 1 h at 37° C. in the dark. The cells were then rinsed three times with PBS and blocked with 2% BSA in PBST (PBS, 0.05% Tween 20) for 30 min at rt. Following one wash with PBS, the cells were incubated with 100 μL of FITC-jacalin (4 μg/mL in PBST) for 1 h at 37° C. in the dark. […] Slides were analyzed by fluorescence microscopy (Zeiss, using Openlab software).
# (§2) To determine if the inhibition of O-linked glycosylation and induction of apoptosis by 1-68A and 2-68A were specific to Jurkat cells, the effects of 1-68A on human embryonic kidney (HEK) 293T cells were evaluated. In this case, O-linked glycans on the cell surface were monitored by staining with jacalin, a lectin that binds core 1 structures (Galβ1,3-GalNAcα1-Ser/Thr). […]
# [2] = tested on: HEK 293T cells; test: TUNEL staining of HEK 293T cells (apoptosis); assay type: cell-based, human; conditions: 100 μM, 24 h
# Procedure: as §1, §2
smiles,measurement,setting,value
O=c1ccn([C@@H]2O[C@H](CON=Cc3ccc(O)c(O)c3O)[C@@H](O)[C@H]2O)c(=O)[nH]1 [1-68A],effect on jacalin staining,[1],inhibits
same,effect on TUNEL staining compared to untreated cells,[2],increases
